# Assay results reported in patent US10668039B2, “Methods for treatment of adenoid cystic carcinoma” (THE CHILDREN'S MEDICAL CENTER CORPORATION, priority 2016, dated 2020).
# Experiments:
# c-myb:GFP = c-myb:GFP zebrafish blastomere embryo culture chemical screen; format: cell-based; conditions: approximately 30 μM, 2 days
# Procedure: The inventors have developed an embryo culture system in which embryos bearing a c-myb:GFP transgenic reporter were dissociated during sphere stage at 4 hours post fertilization (hpf), and cultured in gelatin-coated 384 well plates with chemicals for 2 days until imaging for fluorescent reporter activity (FIG. 1). This fluorescent transgene is expressed in a similar pattern to the endogenous gene. […] This transgene responds to inducers of hematopoiesis, as myb is a marker of hematopoietic stem cells (HSCs).
# The image analysis software (ImageJ and MatLab) was used to identify hits that downregulate c-myb:GFP zebrafish embryo cultures by a z-score less than […] and more than 70% downregulation. Hits were assessed by eye and scored for morphology. Toxic compounds that caused poor embryoid body (EB) formation were assessed a 4.
# Zebrafish cell culture: Zebrafish embryo cultures were adapted from Xu (2013). Dissociated blastomere cells were grown in medium composed of 85% LDF medium, 5% heat inactivated FBS, and 10% zebrafish day 1 embryo extract. LDF medium contains 50% Leibowitz's L-15 (Invitrogen), 20% DMEM (Invitrogen), and 30% DMEM/F-12 (Invitrogen), supplemented with 0.018% sodium bicarbonate, 15 mM HEPES (Invitrogen), 1% L-Glutamine (Invitrogen), 10 nM sodium selenite (Sigma-Aldrich), 1% N2 (Invitrogen), 2% B27 (Invitrogen), 1% Penicillin-Streptomycin (Invitrogen), and 0.2% Primocin (InvivoGen).
# Screening procedures: Two 384-well plates were coated with 0.1% gelatin for each chemical library plate. Males of the c-myb:GFP transgenic line were set up overnight with casper females and kept separated until morning when they were mixed for mating. Embryos were washed twice with E3 embryo water and treated with pronase to remove chorions. Dechorionated embryos were washed with E3 embryo water and collected into tubes containing media. Embryos were disassociated by shaking ˜10 times and were filtered through a 40 μm nylon mesh filter. Resulting single cells were diluted with medium and aliquoted 30 μl per well into the 384-well plates at approximately 2 embryo equivalents per well. Chemicals were dispensed immediately afterwards with an Agilent Bravo robot. Chemicals from the libraries were diluted 300 times with LDF medium and were aliquoted 10 μl per well for a final concentration of approximately 33 μM. […] Cells were cultured in a 28° C. incubator with 5% CO2. Two days later, cells were imaged by a Yokogawa Cell Voyager 7000 imager. Images were analyzed by ImageJ and MatLab and confirmed by eye. […]
# Culture of dissociated blastomere cells: Stage-matched zebrafish blastomeres were dissociated at 4 hpf and grown in medium composed of 85% LDF medium, 5% FBS, and 10% embryo extract. LDF medium contains 50% Leibowitz's L-15 (Invitrogen), 20% DMEM (Invitrogen), and 30% DMEM/F-12 (Invitrogen), supplemented with 2% B27 (Gibco), 15 mM HEPES (Gibco), 1% L-glutamine (Gibco), 1% N2 (Gibco), 10 nM sodium selenite (Sigma), 100 ug/mL piperacillin (Sigma), 10 ug/mL ciprofloxacin (GenHunter), and 0.018% sodium bicarbonate (Gibco). Embryo extract was made by homogenizing 24 hpf wildtype AB embryos in HBSS (Gibco).
# c-myb [1] = assay: qPCR of sorted c-myb:GFP zebrafish embryo cells; format: cell-based; conditions: sorted c-myb:GFP cells from 72 hpf embryos, 1 μM, 6 hours
# Procedure: RA dose response experiments were plated similarly in LDF medium with the appropriate RA concentration. Sorted c-myb:GFP+ cells were collected from 72 hpf transgenic embryos that were homogenized: embryos were finely chopped and dissociated using Liberase (Roche), cell suspensions were filtered, and 58,000 GFP+ live cells were collected using a FACS Aria cell sorter (BD Biosciences). Cells were cultured for 6 hours in LDF medium, and then collected for qPCR.
# (§1) Quantitative PCR: Total RNA from cells was extracted using Qiagen RNeasy Mini Kit, and random primed cDNA was generated (Invitrogen, SuperScript III First-Strand Synthesis System). The SsoFast EvaGreen (Biorad) method was used to quantify cDNAs of interest, which are represented as the fold change in transcript level. The amount of cDNA starting material for each sample was normalized in relation to species-specific β-actin expression for zebrafish samples, and both gapdh and β-actin expression for human samples. The primer sequences used were zebrafish myb: forward, 5′-[…]-3′ (SEQ ID No:1), reverse, 5′-[…]-3′ (SEQ ID No:2); zebrafish β-actin: forward, 5′-[…]-3′ (SEQ ID No:3), reverse, 5′-[…]-3′ (SEQ ID No:4); human myb: forward, 5′-[…]-3′ (SEQ ID No:5), reverse, 5′-[…]-3′ (SEQ ID No:6); human gapdh: forward, 5′-[…]-3′ (SEQ ID No:7), reverse, 5′-[…]-3′ (SEQ ID No:8); human β-actin: forward, 5′-[…]-3′ (SEQ ID No:9), reverse, 5′-[…]-3′ (SEQ ID No:10).
# Zebrafish quantitative PCR analysis: Stage-matched 72 hpf c-myb:GFP transgenic embryos were finely chopped and dissociated using Liberase (Roche). GFP+ cells were collected using a FACS Aria cell sorter (BD Biosciences). Sorted cells were resuspended in zebrafish blastomere media and plated with 1 μM retinoic acid agonists for 6 hours. Cells were then collected and RNA was isolated using the RNeasy Micro Plus Kit (Qiagen) as per the manufacturer's instructions. cDNA was synthesized using the SuperScript III Kit (Life Technologies). Quantitative PCR was performed in triplicate on a BioRad iQ5 real-time PCR machine using Ssofast EvaGreen Supermix (BioRad). Samples were normalized to β-actin gene. Zebrafish primers used (forward and reverse respectively): actin, 5′-[…]-3′ (SEQ ID No:3) and 5′-[…] -3′ (SEQ ID No:4); c-myb, 5′-[…]-3′ (SEQ ID No:1) and 5′-[…]-3′ (SEQ ID No:2); mpx, 5′-[…]-3′ (SEQ ID No:11) and 5′-[…]-3′ (SEQ ID No:12); GFP, 5′-[…]-3′ (SEQ ID No:13) and 5′-[…]-3′ (SEQ ID No:14).
# c-myb [2] = assay: U937 time course qPCR of c-myb; format: cell-based, human; conditions: 1 μM; 6, 24 and 48 hours
# Procedure: Cell culture: U937 cells were grown in RPMI 1640 (Life Technologies), 10% heat inactivated FBS, and 1% Penicillin-Streptomycin (Invitrogen). CellTiter-Glo Luminescent Cell Viability Assay (Promega) was performed as per manufacturer's instructions. Cell viability was assessed at day 2.
# as §1
# U937 time course quantitative PCR analysis: U937 cells were plated with 1 μM retinoic acid agonists for the duration indicated. Cells were then collected and RNA was isolated using the RNeasy Plus Mini Kit (Qiagen) as per the manufacturer's instructions. Further processing was done as described in the section above. Samples were normalized to β-actin gene. Human primers used (forward and reverse respectively): actin, 5′-[…]-3′ (SEQ ID No:9) and 5′-[…]-3′ (SEQ ID No:10); c-myb, 5′-[…]-3′ (SEQ ID No:5) and 5′-[…]-3′ (SEQ ID No:6).
# ACC = conditions: Phase II trials in ACC; cited from earlier work
# [3] = Table 2, c-myb:GFP embryo cultures, average across two plates
# [4] = Table 2, c-myb:GFP embryo cultures
# [5] = Table 3, GFP signal in blastomere embryo culture screen
compound,measurement,setting,value
COc1ccc2c(c1)c(CC(=O)O)c(C)n2Cc1ccc(F)cc1 [1-(4-Fluorobenzyl)-5-methoxy-2-methylindole-3-acetic acid],Z-Score,c-myb:GFP; [3],−1.726
"Cc1nsc(NC(=O)N2CCCC(Cc3ccc(F)cc3)C2)n1 (stereo not drawn) [3-(4-fluorobenzyl)-N-(3-methyl-1,2,4-thiadiazol-5-yl)piperidine-1-carboxamide]",Z-Score,c-myb:GFP; [3],−3.287
"Cc1nn(C)cc1-c1ccnc(NC(CC(C)(C)C)c2cccnc2)n1 (stereo not drawn) [4-(1,3-dimethyl-1H-pyrazol-4-yl)-N-(3,3-dimethyl-1-pyridin-3-ylbutyl)pyrimidin-2-amine]",Z-Score,c-myb:GFP; [3],−2.29
"COc1ccc(N2CCN(C(=O)Nc3nc(C)ns3)CC2(C)C)cc1 [4-(4-methoxyphenyl)-3,3-dimethyl-N-(3-methyl-1,2,4-thiadiazol-5-yl)piperazine-1-carboxamide]",Z-Score,c-myb:GFP; [3],−2.357
"Cc1nsc(NC(=O)N2CCC(Sc3ccccc3C)CC2)n1 [4-[(2-methylphenyl)thio]-N-(3-methyl-1,2,4-thiadiazol-5-yl)piperidine-1-carboxamide]",Z-Score,c-myb:GFP; [3],−2.228
CC1=C(/C=C/C(C)=C\C=C\C(C)=C\C(=O)O)C(C)(C)CCC1 [9-cis retinoic acid],Fold Change,c-myb:GFP; [4],−0.9153
same,Z-Score,c-myb:GFP; [3],−1.566
same,Fold Change,c-myb:GFP; [5],−0.9153
same,Z-Score,c-myb:GFP; [5],−1.566
same,endogenous myb levels by qPCR,c-myb [1],significantly downregulate
same,myb levels in U937 by qPCR,c-myb [2],significantly downregulate
C=C(C)[C@H]1CC=C(C(=O)O)CC1 [(−)-Perillic acid],Fold Change,c-myb:GFP; [4],−0.7327
same,Z-Score,c-myb:GFP; [3],−1.848
"CCCCOCCOc1nc(-c2ccc(C(=O)O)c(F)c2)sc1C [AC 261066, 4-[4-(2-Butoxyethoxy-)-5-methyl-2-thiazolyl]-2-fluorobenzoic acid]",Fold Change,c-myb:GFP; [4],−0.7734
same,Z-Score,c-myb:GFP; [3],−1.697
same,Fold Change,c-myb:GFP; [5],−0.7734
same,Z-Score,c-myb:GFP; [5],−1.697
"CC1(C)CCC(C)(C)c2cc(C(=O)Nc3ccc(C(=O)O)cc3)ccc21 [AM-580, 4-[(5,6,7,8-Tetrahydro-5,5,8,8-tetramethyl-2-naphthalenyl)carboxamido]benzoic acid]",Fold Change,c-myb:GFP; [4],−0.9547
same,Z-Score,c-myb:GFP; [3],−1.631
same,Fold Change,c-myb:GFP; [5],−0.9547
same,Z-Score,c-myb:GFP; [5],−1.631
CC(C)C[C@H](NC(=O)[C@H](Cc1ccccc1)NC(=O)c1cnccn1)B(O)O [Bortezomib],Objective Response Rate,ACC,0%
O=c1c2ccccc2[nH]c(=S)n1CCN1CCC(=C(c2ccc(F)cc2)c2ccc(F)cc2)CC1 [Diacylglycerol Kinase Inhibitor II],Z-Score,c-myb:GFP; [3],−1.493
CO[C@H]1C[C@@H]2CC[C@@H](C)[C@@](O)(O2)C(=O)C(=O)N2CCCC[C@H]2C(=O)O[C@H]([C@H](C)C[C@@H]2CC[C@@H](OCCO)[C@H](OC)C2)CC(=O)[C@H](C)/C=C(\C)[C@@H](O)[C@@H](OC)C(=O)[C@H](C)C[C@H](C)/C=C/C=C/C=C/1C [Everolimus],Objective Response Rate,ACC,0%
O=C(c1ccc(OCCN2CCCCC2)cc1)c1c(-c2ccc(O)cc2)sc2cc(O)ccc12 [Evista],Z-Score,c-myb:GFP; [3],−3.318
CC1(C)O[C@@H]2C[C@H]3[C@@H]4C[C@H](F)C5=CC(=O)C=C[C@]5(C)[C@H]4[C@@H](O)C[C@]3(C)[C@]2(C(=O)CO)O1 [FluniSOLIDe],Z-Score,c-myb:GFP; [3],−3.085
COc1cc2ncnc(Nc3ccc(F)c(Cl)c3)c2cc1OCCCN1CCOCC1 [Gefitinib],Objective Response Rate,ACC,0%
Cc1ccc(NC(=O)c2ccc(CN3CCN(C)CC3)cc2)cc1Nc1nccc(-c2cccnc2)n1 [Imatinib],Objective Response Rate,ACC,0%
"Cl.FC(F)(F)c1cc(CO[C@H]2CCCN[C@H]2c2ccccc2)cc(C(F)(F)F)c1 [L-733,060 hydrochloride]",Fold Change,c-myb:GFP; [4],−0.752
same,Z-Score,c-myb:GFP; [3],−1.715
CS(=O)(=O)CCNCc1ccc(-c2ccc3ncnc(Nc4ccc(OCc5cccc(F)c5)c(Cl)c4)c3c2)o1 [Lapatinib],Objective Response Rate,ACC,0%
"Cc1c(C(C)Nc2ncnc3sccc23)cnn1C (stereo not drawn) [N-[1-(1,5-dimethyl-1H-pyrazol-4-yl)ethyl]thieno[2,3-d]pyrimidin-4-amine]",Z-Score,c-myb:GFP; [3],−2.83
O=C(Cc1cccc(O)c1)NCc1cc2cc(Cl)ccc2[nH]1 [N-[(5-chloro-1H-indol-2-yl)methyl]-2-(3-hydroxyphenyl)acetamide],Z-Score,c-myb:GFP; [3],−3.297
Nc1nc2ccc(OC(F)(F)F)cc2s1 [Riluzole],Z-Score,c-myb:GFP; [3],−6.521
CNC(=O)c1cc(Oc2ccc(NC(=O)Nc3ccc(Cl)c(C(F)(F)F)c3)cc2)ccn1 [Sorafenib],Objective Response Rate,ACC,11%
O=C(O[C@H]1[C@H](Oc2ccccc2COC(=O)C2(O)C=CCCC2=O)O[C@H](CO)[C@@H](O)[C@@H]1O)c1ccccc1 (stereo partly drawn) [TREMULACIN],Z-Score,c-myb:GFP; [3],−3.9299
"C/C(=C\c1ccc(C(=O)O)cc1)c1ccc2c(c1)C(C)(C)CCC2(C)C [TTNPB, 4-[(E)-2-(5,6,7,8-Tetrahydro-5,5,8,8-tetramethyl-2-naphthalenyl)-1-propenyl]benzoic acid]",Z-Score,c-myb:GFP; [3],−1.6339
same,Z-Score,c-myb:GFP; [5],−1.634
O=C(CCCCCCC(=O)Nc1ccccc1)NO [Vorinostat],Objective Response Rate,ACC,3%
